Experimental data taken from PubChem BioAssay AID248 (DTP/NCI, 2004).
Where “and” joins values, the source holds several entries; their conditions need not be identical. Identical values can stand only once. Toxic doses and inconclusive results are not listed.

System: L1210 leukemia ip in BDF1 mice, survival T/C
Assay: NCI In Vivo Anticancer Drug Screen. Data for tumor model L1210 Leukemia (intraperitoneal) in B6D2F1 (BDF1) mice
Conditions: endpoint: mean survival time, higher = longer survival
Method in brief: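 Antitumor effect is assessed in tumor-bearing animals. Survival in the compound arm is compared with a vehicle-dosed control arm and expressed as their quotient.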

[1] = dose: 50.0 mg/kg/injection, schedule: Q01DX009 (ip), vehicle: Klucel (hydroxypropylcellulose) (HPC)
[2] = dose: 100.0 mg/kg/injection, schedule: Q01DX009 (ip), vehicle: Klucel (hydroxypropylcellulose) (HPC)
[3] = dose: 100.0 mg/kg/injection, schedule: Q04DX003 (ip), vehicle: Klucel (hydroxypropylcellulose) (HPC)
[4] = dose: 200.0 mg/kg/injection, schedule: Q01DX009 (ip), vehicle: Klucel (hydroxypropylcellulose) (HPC)
[5] = dose: 200.0 mg/kg/injection, schedule: Q04DX003 (ip), vehicle: Klucel (hydroxypropylcellulose) (HPC)
[6] = dose: 25.0 mg/kg/injection, schedule: Q01DX009 (ip), vehicle: saline with Tween-80
[7] = dose: 100.0 mg/kg/injection, schedule: Q04DX002 (ip), vehicle: Klucel (hydroxypropylcellulose) (HPC)
[8] = dose: 200.0 mg/kg/injection, schedule: Q04DX002 (ip), vehicle: Klucel (hydroxypropylcellulose) (HPC)
[9] = dose: 400.0 mg/kg/injection, schedule: Q04DX002 (ip), vehicle: Klucel (hydroxypropylcellulose) (HPC)

## O=c1[nH]c2ccc(F)cc2c(=O)o1
dose: 75.0 mg/kg/injection, schedule: Q01DX009 (ip), vehicle: saline
  T/C: 107 % of control
dose: 150.0 mg/kg/injection, schedule: Q01DX009 (ip), vehicle: saline
  T/C: 93 % of control
dose: 300.0 mg/kg/injection, schedule: Q01DX009 (ip), vehicle: saline
  T/C: 94 % of control

## O=S(=O)(O)C1(C(Cl)Cl)CCCCC1 (tested in a mixture with another compound)
dose: 9.0 mg/kg/injection, schedule: Q01DX001 (ip), vehicle: other
  T/C: 100 % of control
dose: 18.0 mg/kg/injection, schedule: Q01DX001 (ip), vehicle: other
  T/C: 105 % of control
dose: 37.0 mg/kg/injection, schedule: Q01DX001 (ip), vehicle: other
  T/C: 105 % of control
dose: 75.0 mg/kg/injection, schedule: Q01DX001 (ip), vehicle: other
  T/C: 104 % of control
dose: 150.0 mg/kg/injection, schedule: Q01DX001 (ip), vehicle: other
  T/C: 111 % of control
dose: 300.0 mg/kg/injection, schedule: Q01DX001 (ip), vehicle: other
  T/C: 115 % of control

## CC(Cc1ccccc1)NC(=O)CCNNC(=O)c1ccncc1 (stereo unspecified)
dose: 12.5 mg/kg/injection, schedule: Q01DX009 (ip), vehicle: Klucel (hydroxypropylcellulose) (HPC)
  T/C: 96 % of control
dose: 25.0 mg/kg/injection, schedule: Q01DX009 (ip), vehicle: Klucel (hydroxypropylcellulose) (HPC)
  T/C: 100 % of control
[1]
  T/C: 103 % of control
dose: 50.0 mg/kg/injection, schedule: Q04DX003 (ip), vehicle: Klucel (hydroxypropylcellulose) (HPC)
  T/C: 98 % of control
[2]
  T/C: 100 % of control
[3]
  T/C: 96 % of control
[4]
  T/C: 91 % of control
[5]
  T/C: 88 % of control

## Cc1c(CC(Cl)Cl)cc(-c2ccccc2)c2ccccc12
[3]
  T/C: 96 % of control
[5]
  T/C: 92 % of control
dose: 400.0 mg/kg/injection, schedule: Q04DX003 (ip), vehicle: Klucel (hydroxypropylcellulose) (HPC)
  T/C: 100 % of control

## O=C(COc1ccccc1)N/N=C/c1cccc([N+](=O)[O-])c1
[6]
  T/C: 92 % of control
dose: 50.0 mg/kg/injection, schedule: Q01DX009 (ip), vehicle: saline with Tween-80
  T/C: 86 % of control
dose: 100.0 mg/kg/injection, schedule: Q01DX009 (ip), vehicle: saline with Tween-80
  T/C: 86 % of control

## c1cc2cnc3cccc4cnc(c1)c2c43
dose: 100.0 mg/kg/injection, schedule: Q04DX003 (ip), vehicle: saline sonified
  T/C: 105 % of control
dose: 200.0 mg/kg/injection, schedule: Q04DX003 (ip), vehicle: saline sonified
  T/C: 95 % of control
dose: 400.0 mg/kg/injection, schedule: Q04DX003 (ip), vehicle: saline sonified
  T/C: 97 % of control

## Clc1ccc(C(Cl)(Cl)Cl)cc1Cl
[1]
  T/C: 110 % of control
[2]
  T/C: 103 % of control
[3]
  T/C: 106 % of control
[4]
  T/C: 98 % of control
[5]
  T/C: 106 % of control

## OCC1OC(n2cncn2)C(O)C1O (stereo unspecified)
dose: 100.0 mg/kg/injection, schedule: Q01DX005 (ip), vehicle: saline
  T/C: 102 % of control and 111 % of control

## O=C(NO)c1ccccc1O
dose: 85.0 mg/kg/injection, schedule: Q03HX032 (ip), vehicle: other
  T/C: 97 % of control
[2]
  T/C: 104 % of control
dose: 100.0 mg/kg/injection, schedule: Q04DX002 (ip), vehicle: carboxymethylcellulose (CMC)
  T/C: 98 % of control and 108 % of control
dose: 100.0 mg/kg/injection, schedule: Q04DX003 (ip), vehicle: carboxymethylcellulose (CMC)
  T/C: 101 % of control and 118 % of control
dose: 130.0 mg/kg/injection, schedule: Q03HX032 (ip), vehicle: other
  T/C: 102 % of control
[4]
  T/C: 112 % of control
dose: 200.0 mg/kg/injection, schedule: Q01DX015 (ip), vehicle: other
  T/C: 105 % of control
dose: 200.0 mg/kg/injection, schedule: Q03HX032 (ip), vehicle: other
  T/C: 105 % of control
dose: 200.0 mg/kg/injection, schedule: Q04DX002 (ip), vehicle: carboxymethylcellulose (CMC)
  T/C: 98 % of control and 108 % of control
dose: 200.0 mg/kg/injection, schedule: Q04DX003 (ip), vehicle: carboxymethylcellulose (CMC)
  T/C: 99 % of control and 103 % of control
dose: 266.0 mg/kg/injection, schedule: Q01DX009 (ip), vehicle: saline
  T/C: 97 % of control
dose: 300.0 mg/kg/injection, schedule: Q01DX015 (ip), vehicle: other
  T/C: 93 % of control
dose: 300.0 mg/kg/injection, schedule: Q03HX032 (ip), vehicle: other
  T/C: 121 % of control
dose: 400.0 mg/kg/injection, schedule: Q01DX009 (ip), vehicle: Klucel (hydroxypropylcellulose) (HPC)
  T/C: 105 % of control
dose: 400.0 mg/kg/injection, schedule: Q01DX009 (ip), vehicle: saline
  T/C: 97 % of control
dose: 400.0 mg/kg/injection, schedule: Q04DX002 (ip), vehicle: carboxymethylcellulose (CMC)
  T/C: 96 % of control and 104 % of control
dose: 400.0 mg/kg/injection, schedule: Q04DX003 (ip), vehicle: carboxymethylcellulose (CMC)
  T/C: 105 % of control
dose: 450.0 mg/kg/injection, schedule: Q01DX015 (ip), vehicle: other
  T/C: 108 % of control
dose: 450.0 mg/kg/injection, schedule: Q03HX032 (ip), vehicle: other
  T/C: 208 % of control
dose: 600.0 mg/kg/injection, schedule: Q01DX009 (ip), vehicle: saline
  T/C: 104 % of control
dose: 670.0 mg/kg/injection, schedule: Q01DX015 (ip), vehicle: other
  T/C: 86 % of control
dose: 900.0 mg/kg/injection, schedule: Q01DX009 (ip), vehicle: saline
  T/C: 104 % of control

## Clc1ccc(OCc2ccccc2)c(Cl)c1
[7]
  T/C: 106 % of control
[8]
  T/C: 106 % of control
[9]
  T/C: 95 % of control

## Cc1ccc(Br)cc1Br
dose: 100.0 mg/kg/injection, schedule: Q01DX001 (ip), vehicle: saline
  T/C: 96 % of control
dose: 200.0 mg/kg/injection, schedule: Q01DX001 (ip), vehicle: saline
  T/C: 100 % of control
dose: 400.0 mg/kg/injection, schedule: Q01DX001 (ip), vehicle: saline
  T/C: 94 % of control

## Nc1ccc(S(=O)(=O)c2ccc(N)cn2)cc1
dose: 50.0 mg/kg/injection, schedule: Q04DX002 (ip), vehicle: Klucel (hydroxypropylcellulose) (HPC)
  T/C: 89 % of control
[7]
  T/C: 98 % of control and 107 % of control
[8]
  T/C: 96 % of control
[9]
  T/C: 96 % of control and 102 % of control

## CN(C)N=Nc1ccccc1C(=O)O
dose: 0.78 mg/kg/injection, schedule: Q01DX009 (ip), vehicle: Klucel (hydroxypropylcellulose) (HPC)
  T/C: 105 % of control
dose: 1.56 mg/kg/injection, schedule: Q01DX009 (ip), vehicle: Klucel (hydroxypropylcellulose) (HPC)
  T/C: 97 % of control
dose: 3.12 mg/kg/injection, schedule: Q01DX009 (ip), vehicle: Klucel (hydroxypropylcellulose) (HPC)
  T/C: 103 % of control
dose: 6.25 mg/kg/injection, schedule: Q01DX009 (ip), vehicle: Klucel (hydroxypropylcellulose) (HPC)
  T/C: 103 % of control
dose: 11.0 mg/kg/injection, schedule: Q01DX009 (ip), vehicle: saline with Tween-80
  T/C: 109 % of control
dose: 12.5 mg/kg/injection, schedule: Q01DX001 (ip), vehicle: saline with Tween-80
  T/C: 95 % of control
dose: 12.5 mg/kg/injection, schedule: Q01DX009 (ip), vehicle: saline with Tween-80
  T/C: 123 % of control
dose: 12.5 mg/kg/injection, schedule: Q04DX003 (ip), vehicle: saline with Tween-80
  T/C: 101 % of control
dose: 17.0 mg/kg/injection, schedule: Q01DX009 (ip), vehicle: saline with Tween-80
  T/C: 107 % of control
dose: 25.0 mg/kg/injection, schedule: Q01DX001 (ip), vehicle: saline with Tween-80
  T/C: 98 % of control
[6]
  T/C: 115 % of control
dose: 25.0 mg/kg/injection, schedule: Q04DX003 (ip), vehicle: other
  T/C: 115 % of control
dose: 25.0 mg/kg/injection, schedule: Q04DX003 (ip), vehicle: saline with Tween-80
  T/C: 104 % of control
dose: 37.0 mg/kg/injection, schedule: Q01DX009 (ip), vehicle: saline with Tween-80
  T/C: 91 % of control
dose: 50.0 mg/kg/injection, schedule: Q01DX001 (ip), vehicle: saline with Tween-80
  T/C: 101 % of control
dose: 50.0 mg/kg/injection, schedule: Q04DX003 (ip), vehicle: other
  T/C: 105 % of control
dose: 50.0 mg/kg/injection, schedule: Q04DX003 (ip), vehicle: saline with Tween-80
  T/C: 103 % of control
dose: 100.0 mg/kg/injection, schedule: Q04DX003 (ip), vehicle: other
  T/C: 111 % of control
dose: 200.0 mg/kg/injection, schedule: Q04DX003 (ip), vehicle: other
  T/C: 113 % of control
dose: 400.0 mg/kg/injection, schedule: Q04DX003 (ip), vehicle: other
  T/C: 100 % of control

## C/C=C/c1ccc(OCC)c(OC)c1
dose: 100.0 mg/kg/injection, schedule: Q04DX003 (ip), vehicle: saline
  T/C: 97 % of control
dose: 200.0 mg/kg/injection, schedule: Q04DX003 (ip), vehicle: saline
  T/C: 98 % of control
